Patent US5571805A, “Antibiotic compounds” (Zeneca Limited, priority 1992, dated 1996)
Values after ≈ are worked out from the molar mass of the structure shown.

Assays:
[1] = system: Gram positive and negative, aerobic and anaerobic bacteria; details: imipenem, background; cited from earlier work
[2] = system: B. fragilis AMP S; experiment: MIC by agar-dilution (Diagnostic Sensitivity Test), inoculum 10^4 CFU/spot; assay type: cell-based; details: Bacteroides fragilis, read-out: minimum inhibitory concentration (MIC)
From the text: (§1) The pharmaceutically acceptable carbapenem compounds of the present invention are useful antibacterial agents having a broad spectrum of activity in vitro against standard laboratory microorganisms, both Gram-negative and Gram-positive, which are used to screen for activity against pathogenic bacteria. The antibacterial spectrum and potency of a particular compound may be determined in a standard test system. In particular the carbapenems of the present invention show good stability to beta-lactamases and have a particularly good elimination half life in mammals. In general compounds show significant improvement over imipenem.
(§2) The following results were obtained for representative compounds on a standard in vitro test system using Diagnostic Sensitivity Test. The antibacterial activity is described in terms of the minimum inhibitory concentration (MIC) determined by the agar-dilution technique with an inoculum size of 10^4 CFU/spot.

[3] = system: E. coli DCO; experiment: as above; assay type: cell-based; details: Escherichia coli, read-out: minimum inhibitory concentration (MIC)
From the text: as §1, §2

[4] = system: Enterobacter cloacae P99-; experiment: as above; assay type: cell-based; details: P99, read-out: minimum inhibitory concentration (MIC)
From the text: as §1, §2

[5] = system: P. morganii I + 001; experiment: as above; assay type: cell-based; details: Morganella morganii, read-out: minimum inhibitory concentration (MIC)
From the text: as §1, §2

[6] = system: S. aureus Oxford; experiment: as above; assay type: cell-based; details: Staphylococcus aureus, read-out: minimum inhibitory concentration (MIC)
From the text: as §1, §2

SMILES	spectrum of antibacterial activity [1]	MIC [2]	MIC [3]	MIC [4]	MIC [5]	MIC [6]
C[C@@H](O)[C@H]1C(=O)N2C(C(=O)O)=C(SCCN=CN)C[C@H]12 [imipenem, N-formimidoyl thienamycin]	broad spectrum of antibacterial activity	–	–	–	–	–
C[C@@H](O)[C@H]1C(=O)N2C(C(=O)O)=C(S[C@@H]3CN[C@H](C(=O)Nc4cccc(S(=O)(=O)O)c4)C3)[C@H](C)[C@H]12 [EXAMPLE 1, (1R,5S,6S,8R,2'S,4'S)-2-(2-(3-Sulfophenylcarbamoyl)pyrrolidin-4-ylthio)-6-(1-hydroxyethyl)-1-methylcarbapenem-3-carboxylic acid]	–	0.25 µg/mL (≈ 0.489 µM)	0.015 µg/mL (≈ 0.0293 µM)	0.008 µg/mL (≈ 0.0156 µM)	0.015 µg/mL (≈ 0.0293 µM)	0.125 µg/mL (≈ 0.244 µM)
